Target: Mitochondrial complex I; NADH oxidoreductase (Bos taurus, UniProt P25708+P52505)
Assay: Inhibitory concentration against NADH oxidase
Assay type: protein-complex assay

Chain of Mitochondrial complex I; NADH oxidoreductase (P25708 21-464 limits assumed, other chains not shown): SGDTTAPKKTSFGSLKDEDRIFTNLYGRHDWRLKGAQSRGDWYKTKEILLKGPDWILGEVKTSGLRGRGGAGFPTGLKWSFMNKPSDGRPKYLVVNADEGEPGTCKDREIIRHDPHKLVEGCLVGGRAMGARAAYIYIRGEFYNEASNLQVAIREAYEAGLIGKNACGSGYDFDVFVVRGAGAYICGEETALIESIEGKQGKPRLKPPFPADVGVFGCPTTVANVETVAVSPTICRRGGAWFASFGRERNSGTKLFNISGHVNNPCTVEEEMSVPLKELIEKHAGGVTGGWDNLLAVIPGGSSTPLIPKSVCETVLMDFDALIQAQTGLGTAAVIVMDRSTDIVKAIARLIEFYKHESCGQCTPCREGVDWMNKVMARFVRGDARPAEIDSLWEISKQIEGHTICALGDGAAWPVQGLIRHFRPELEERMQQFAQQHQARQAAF

SMILES | IC50 [nM]
COc1cc2c(cc1OCc1ccccc1)CCN(C)C2Cc1ccccc1 (centres undefined) | 2700
COc1cc2c(cc1OCc1ccccc1)CCN(P(=O)(OC(C)C)OC(C)C)C2Cc1ccccc1 (centres undefined) | 1690
COc1cc2c(cc1OCc1ccccc1)CCN=C2Cc1ccccc1 | 2910
COc1cc2c(cc1OCc1ccccc1)CCNC2Cc1ccccc1 (centres undefined) | 3880

From ChEMBL document CHEMBL1133061, “Synthesis of N-diisopropyl phosphoryl benzyltetrahydroisoquinoline, a new class of mitochondrial complexes I and III inhibitors” (Bioorg Med Chem Lett, 2000)
